Measurements taken from patent US20250179051A1, “PYRIMIDINLY-OXY-QUINOLINE BASED HERBICIDAL COMPOUNDS” (SYNGENTA CROP PROTECTION AG, priority 2022, published 2025).

What was measured:
Type in all cases: in vivo
Settings in all cases: 250 g/ha, evaluated after 13 days, five-point scale
[1] = system: Amaranthus palmeri (AMAPA); assay: Pre-emergence herbicide glasshouse test
Procedure: (§1) Seeds of a variety of test species are sown in standard soil in pots Amaranthus retoflexus (AMARE), Amaranthus palmeri (AMAPA), Echinochloa crus-galli (ECHCG), Ipomoea hederacea (IPOHE), Setaria faberi (SETFA). After cultivation for one day (pre-emergence) or after 8 days cultivation (post-emergence) under controlled conditions in a glasshouse (at 24/16° C., day/night; 14 hours light; 65% humidity), the plants are sprayed with an aqueous spray solution derived from the formulation of the technical active ingredient in acetone/water (50:50) solution containing 0.5% Tween 20 (polyoxyethelyene sorbitan monolaurate, CAS RN 9005-64-5). Compounds are applied at 250 g/ha unless otherwise stated. The test plants are then grown in a glasshouse under controlled conditions in a glasshouse (at 24/16° C., day/night; 14 hours light; 65% humidity) and watered twice daily. After 13 days for pre and post-emergence, the test is evaluated for the percentage damage caused to the plant. The biological activities are shown in the following table on a five-point scale (5=81-100%; 4=61-80%; 3=41-60%; 2=21-40%; 1=0-20%).

Setaria faberi (SETFA) [2] = assay: Pre-emergence herbicide glasshouse test
Procedure: as §1

[3] = system: Echinochloa crus-galli (ECHCG); assay: Pre-emergence herbicide glasshouse test
Procedure: as §1

[4] = system: Amaranthus retoflexus (AMARE); assay: Pre-emergence herbicide glasshouse test
Procedure: as §1

[5] = system: Ipomoea hederacea (IPOHE); assay: Pre-emergence herbicide glasshouse test
Procedure: as §1

[6] = system: Amaranthus palmeri (AMAPA); assay: Post-emergence herbicide glasshouse test
Procedure: as §1

Setaria faberi (SETFA) [7] = assay: Post-emergence herbicide glasshouse test
Procedure: as §1

[8] = system: Echinochloa crus-galli (ECHCG); assay: Post-emergence herbicide glasshouse test
Procedure: as §1

[9] = system: Amaranthus retoflexus (AMARE); assay: Post-emergence herbicide glasshouse test
Procedure: as §1

[10] = system: Ipomoea hederacea (IPOHE); assay: Post-emergence herbicide glasshouse test
Procedure: as §1

SMILES	percentage damage caused to the plant, AMAPA [1]	percentage damage caused to the plant, SETFA (Setaria faberi (SETFA) [2])	percentage damage caused to the plant, ECHCG [3]	percentage damage caused to the plant, AMARE [4]	percentage damage caused to the plant, IPOHE [5]	percentage damage caused to the plant, AMAPA [6]	percentage damage caused to the plant, SETFA (Setaria faberi (SETFA) [7])	percentage damage caused to the plant, ECHCG [8]	percentage damage caused to the plant, AMARE [9]	percentage damage caused to the plant, IPOHE [10]
CO/N=C/CCc1nc(C(F)(F)F)nc2cccc(Oc3ncc(Cl)cn3)c12 [Compound 1.025, (E)-3-[5-(5-chloropyrimidin-2-yl)oxy-2-(trifluoromethyl)quinazolin-4-yl]-N-methoxy-propan-1-imine]	5 (5=81-100%)	5 (5=81-100%)	5 (5=81-100%)	5 (5=81-100%)	4 (4=61-80%)	4 (4=61-80%)	5 (5=81-100%)	5 (5=81-100%)	5 (5=81-100%)	4 (4=61-80%)
O=C(c1ccc(Br)cn1)c1nc(C(F)(F)F)nc2cccc(Oc3ncc(Cl)cn3)c12 [Compound 1.026]	4 (4=61-80%)	1 (1=0-20%)	1 (1=0-20%)	4 (4=61-80%)	1 (1=0-20%)	2 (2=21-40%)	1 (1=0-20%)	1 (1=0-20%)	1 (1=0-20%)	1 (1=0-20%)
O=C(c1ccc(F)cn1)c1nc(C(F)(F)F)nc2cccc(Oc3ncc(Cl)cn3)c12 [Compound 1.027]	2 (2=21-40%)	1 (1=0-20%)	1 (1=0-20%)	2 (2=21-40%)	1 (1=0-20%)	1 (1=0-20%)	1 (1=0-20%)	1 (1=0-20%)	2 (2=21-40%)	1 (1=0-20%)
CC(=O)c1nc(C(F)(F)F)nc2cccc(Oc3ncc(Cl)cn3)c12 [Compound 1.028, 1-[5-(5-chloropyrimidin-2-yl)oxy-2-(trifluoromethyl)quinazolin-4-yl]ethanone]	5 (5=81-100%)	3 (3=41-60%)	2 (2=21-40%)	5 (5=81-100%)	1 (1=0-20%)	4 (4=61-80%)	2 (2=21-40%)	1 (1=0-20%)	4 (4=61-80%)	3 (3=41-60%)
O=C(c1ccccn1)c1nc(C(F)(F)F)nc2cccc(Oc3ncc(Cl)cn3)c12 [Compound 1.029, [5-(5-chloropyrimidin-2-yl)oxy-2-(trifluoromethyl)quinazolin-4-yl]-(2-pyridyl) methanone]	1 (1=0-20%)	1 (1=0-20%)	1 (1=0-20%)	1 (1=0-20%)	1 (1=0-20%)	1 (1=0-20%)	1 (1=0-20%)	1 (1=0-20%)	1 (1=0-20%)	1 (1=0-20%)
O=C(c1cccnc1)c1nc(C(F)(F)F)nc2cccc(Oc3ncc(Cl)cn3)c12 [Compound 1.030]	5 (5=81-100%)	4 (4=61-80%)	4 (4=61-80%)	5 (5=81-100%)	1 (1=0-20%)	5 (5=81-100%)	2 (2=21-40%)	2 (2=21-40%)	5 (5=81-100%)	2 (2=21-40%)
